Laboratory results: ChEMBL document CHEMBL4354818, “Advances in Discovering Deubiquitinating Enzyme (DUB) Inhibitors” (J Med Chem, 2020)
pEC50, pIC50: −log10 of the molar value.

Columns and labels:
[1] = tested on: HCT-116; assay: Cytotoxicity in human HCT116 cells assessed as reduction in cell viability incubated for 72 hrs by FMCA analysis; assay type: functional, cell-based; conditions: HCT-116, 72 h
[2] = Inhibition of 26S proteasome (unknown origin) incubated for 2 hrs by proteasome Ub-Rho cleavage assay; parameters: species or system Homo sapiens
[3] = biological target: T1, STAM-binding protein (Homo sapiens, UniProt O95630); assay: Inhibition of human STAMBP expressed in Sf21 cells pre-incubated for 20 mins before Ubiquitinated NALP7 substrate addition and measured after 1 hr by immunoblotting analysis
T1 sequence (O95630 whole entry): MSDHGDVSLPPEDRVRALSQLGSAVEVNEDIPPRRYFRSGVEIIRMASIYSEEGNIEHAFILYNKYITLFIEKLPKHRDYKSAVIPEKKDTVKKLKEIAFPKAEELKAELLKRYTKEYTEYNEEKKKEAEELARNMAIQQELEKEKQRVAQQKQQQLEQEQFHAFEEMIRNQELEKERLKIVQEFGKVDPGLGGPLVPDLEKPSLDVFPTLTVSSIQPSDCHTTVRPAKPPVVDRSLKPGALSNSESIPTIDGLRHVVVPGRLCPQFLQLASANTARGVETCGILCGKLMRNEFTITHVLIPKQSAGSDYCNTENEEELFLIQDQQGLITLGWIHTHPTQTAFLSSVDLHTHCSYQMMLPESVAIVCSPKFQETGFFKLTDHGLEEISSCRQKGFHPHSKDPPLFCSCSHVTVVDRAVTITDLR

[4] = biological target: T2, Ubiquitin carboxyl-terminal hydrolase 4 (Homo sapiens, UniProt Q13107); assay: Inhibition of USP4 in human U2OS using Ub-TAMRA substrate by Ub-Rhodamine fluorescent intensity assay; assay type: cell-based
T2 sequence (Q13107 whole entry): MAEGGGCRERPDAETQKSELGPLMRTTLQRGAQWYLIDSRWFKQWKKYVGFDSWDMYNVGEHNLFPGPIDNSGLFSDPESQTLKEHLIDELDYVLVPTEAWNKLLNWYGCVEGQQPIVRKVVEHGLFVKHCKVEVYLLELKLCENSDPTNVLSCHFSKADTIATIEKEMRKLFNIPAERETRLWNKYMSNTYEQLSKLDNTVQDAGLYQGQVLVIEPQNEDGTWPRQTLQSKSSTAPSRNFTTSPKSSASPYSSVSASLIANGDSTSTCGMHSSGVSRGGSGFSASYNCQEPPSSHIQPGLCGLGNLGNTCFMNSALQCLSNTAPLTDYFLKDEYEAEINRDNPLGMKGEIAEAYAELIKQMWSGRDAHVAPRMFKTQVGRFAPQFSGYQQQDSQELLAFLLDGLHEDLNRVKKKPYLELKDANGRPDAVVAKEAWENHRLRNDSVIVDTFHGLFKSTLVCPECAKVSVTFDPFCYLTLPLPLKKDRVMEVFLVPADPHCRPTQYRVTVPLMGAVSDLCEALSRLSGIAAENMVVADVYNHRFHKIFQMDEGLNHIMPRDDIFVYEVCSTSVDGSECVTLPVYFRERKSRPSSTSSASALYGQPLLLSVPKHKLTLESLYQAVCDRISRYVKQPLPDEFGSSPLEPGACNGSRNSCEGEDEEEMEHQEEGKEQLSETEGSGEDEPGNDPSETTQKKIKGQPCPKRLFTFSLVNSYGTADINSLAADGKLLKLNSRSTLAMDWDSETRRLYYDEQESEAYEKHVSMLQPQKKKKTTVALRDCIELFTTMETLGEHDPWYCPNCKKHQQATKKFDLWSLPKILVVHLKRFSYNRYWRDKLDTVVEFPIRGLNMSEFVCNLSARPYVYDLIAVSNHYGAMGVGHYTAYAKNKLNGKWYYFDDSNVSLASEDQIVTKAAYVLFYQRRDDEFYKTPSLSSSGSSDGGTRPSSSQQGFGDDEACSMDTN

[5] = biological target: Ubiquitin carboxyl-terminal hydrolase 7 (Homo sapiens, UniProt Q93009); assay: Inhibition of USP7 in human U2OS using Ub-TAMRA substrate by Ub-Rhodamine fluorescent intensity assay; assay type: cell-based
Sequence of Ubiquitin carboxyl-terminal hydrolase 7 (Q93009 whole entry): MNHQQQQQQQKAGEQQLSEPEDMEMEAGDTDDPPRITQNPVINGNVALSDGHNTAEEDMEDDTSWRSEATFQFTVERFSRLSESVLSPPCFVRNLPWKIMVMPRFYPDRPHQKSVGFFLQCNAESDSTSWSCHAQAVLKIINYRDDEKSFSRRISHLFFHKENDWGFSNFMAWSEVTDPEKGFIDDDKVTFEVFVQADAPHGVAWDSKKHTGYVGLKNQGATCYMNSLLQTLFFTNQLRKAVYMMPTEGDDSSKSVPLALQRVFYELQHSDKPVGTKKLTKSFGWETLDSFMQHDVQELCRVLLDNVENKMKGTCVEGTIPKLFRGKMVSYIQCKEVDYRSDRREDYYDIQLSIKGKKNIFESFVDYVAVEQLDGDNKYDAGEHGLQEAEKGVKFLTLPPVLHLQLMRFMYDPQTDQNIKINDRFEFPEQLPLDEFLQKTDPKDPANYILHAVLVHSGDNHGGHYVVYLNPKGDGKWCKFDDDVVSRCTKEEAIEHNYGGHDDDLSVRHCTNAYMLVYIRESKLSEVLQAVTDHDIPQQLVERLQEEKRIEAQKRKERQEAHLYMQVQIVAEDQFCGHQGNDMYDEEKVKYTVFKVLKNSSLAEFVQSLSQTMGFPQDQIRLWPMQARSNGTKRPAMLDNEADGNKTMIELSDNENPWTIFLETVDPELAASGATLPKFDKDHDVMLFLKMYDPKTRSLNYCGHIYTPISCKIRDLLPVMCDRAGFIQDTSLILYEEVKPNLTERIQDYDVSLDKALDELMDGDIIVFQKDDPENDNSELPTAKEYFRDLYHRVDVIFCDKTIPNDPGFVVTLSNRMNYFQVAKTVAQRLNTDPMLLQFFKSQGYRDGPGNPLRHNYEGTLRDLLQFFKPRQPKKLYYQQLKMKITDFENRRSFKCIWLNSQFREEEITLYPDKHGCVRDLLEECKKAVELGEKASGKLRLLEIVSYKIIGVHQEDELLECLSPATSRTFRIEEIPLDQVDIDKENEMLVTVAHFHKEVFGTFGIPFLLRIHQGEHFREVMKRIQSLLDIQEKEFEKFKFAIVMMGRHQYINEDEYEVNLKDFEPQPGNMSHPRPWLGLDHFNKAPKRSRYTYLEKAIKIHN

SMILES | pEC50 [1] | pEC50 [2] | pIC50 [3] | pIC50 [4] | pIC50 [5]
C=CC(=O)N1C/C(=C\c2ccc([N+](=O)[O-])cc2)C(=O)/C(=C/c2ccc([N+](=O)[O-])cc2)C1 | 5.98 | 5.19 | – | – | –
C=CC(=O)N1CC/C(=C\c2ccc(F)c([N+](=O)[O-])c2)C(=O)/C(=C/c2ccc(F)c([N+](=O)[O-])c2)C1 | 6.24 | 5.19 | – | – | –
O=C(CSc1nc2ccc(N3CCOCC3)cc2c(=O)n1CCc1ccccc1)NCc1ccco1 | – | – | 6.48 | – | –
C#Cc1ccc(CNC(=O)c2cc(C(=O)CCl)cn2C)cc1 | – | – | – | 7.30 | 4.36
